One series deals with nude mice. As to the kind of experiment: Xenograft study: survival of nude mice given inactivator plus BCNU. Particulars: FIGS. 9-13. The source says:
BALB-C derived athymic male mice (nu/nu athymic) weighing between 25-35 g were obtained from the in-house breeding colony of the Paterson Institute for Cancer Research, Christie Hospital NHS Trust, Wilmslow Road, Manchester M20 9BX, England (ASU mice). The animals were housed in a sterile environment until required for experiments. In one experiment mice were obtained from Harlan-Olac, Harlan UK Limited, Shaw's Farm, Blackthorn, Bicester, Oxon. OX6 OPT, England (OLAC mice).

Series [1] concerns human bone marrow granulocyte macrophage colony forming cells. Nature of the series: Sensitization of bone marrow cells to temozolomide (GM-CFC assay). The settings on record: for sensitization of human bone marrow cells to temozolomide, in words: 10 μM inactivator. Type of series: cell-based. The source says: For the granulocyte/macrophage colony-forming cell (GM-CFC) assay primary human bone marrow samples were obtained from patients undergoing cardiothoracic surgery. […] The colonies represented precursor cells of the granulocyte/macrophage lineage (huGM-CFC). Survival was expressed as a % of the number of colonies at zero dose temozolomide.

Another series deals with Raji cells. Nature of the series: Sensitization of Raji cells to BCNU (XTT assay). The format is cell-based, human. How it is done: Following a 2 hour incubation at 37° C., medium containing either increasing doses of BCNU, temozolomide or equivalent vehicle was added and the cells allowed to grow for 6 days. At this time XTT solution was added and the cells incubated for a further 4 hours at 37° C. The resulting red/orange formazan reaction product was quantified by measuring absorption at 450 nm on a microtitre platereader.
For orientation: Tetrazolium dyes change colour on reduction, which living cells bring about.

For another series, the system named is ATase. As to the kind of experiment: ATase activity in tissues of nude mice after inactivator. Type of series: in vivo, mouse. Particulars: 10 mg/kg i.p., 24 and 48 hours (Table 10). How it is done:
ATase substrate DNA was prepared by incubation of purified calf thymes DNA with N-[^3 H]-methyl-N-nitrosuourea (18.7 Ci/mmole, Amersham International). Cell or tissue extracts (see 4.4) were incubated with [^3 H]-methylated-DNA substrate (100 μl containing 6.7 μg of DNA and 100 fmol of O^6 -[^3 H]methylguanine) at 37° C. for 60 mins. Following acid hydrolysis of the DNA as precviously described^21the [^3 H]-methylated protein was recovered and quantitated by liquid scintillation counting. […]
The mice in the tests shown in FIGS. 17 and 18 were BALB-C derived athymic male mice (nu/nu athymic) from the in-house breeding colony at the Paterson Institute for Cancer Research as described above (Animal Services Unit-ASU Mice).
Animals were given a single dose of B.4280 (10 mg/kg i.p.) and sacrificed

Molecules are shown by their SMILES. Entries after “also recorded” stand apart in the source; their conditions may differ.

Take `Nc1nc(OCc2cccs2)c2nc[nH]c2n1` [B.4205, 0^6 -thenylguanine]: the “toxicity in combination with BCNU in nude mice, in words” value in the series on nude mice is recorded as “substantially less toxic in combination with BCNU than BeG in combination with BCNU; also recorded: very little effect”. Moreover, the “sensitization of human bone marrow cells to temozolomide, in words” value in series [1] (patient D (FIG. 14)) was “no differential”; in series [1] (patients C & E (FIG. 14)) it was “smaller sensitization effect than O^6 -benzylguanine”. Also, the “sensitization of GM-CFC to cytotoxic effects of temozolomide, in words” value in series [1] (four different patient samples, 10 μM (FIG. 23)) is “only occurred in one patient”. Moreover, in series [1] (three human bone marrow samples (FIG. 14)), the “sensitization of GM-CFCs to toxic effects of temozolomide, in words” value is “little or no sensitization”. In addition, the results for the “sensitizing Raji cells to growth inhibitory effects of BCNU, in words” value in the series on Raji cells (0.1 μM inactivator (FIG. 2)) and in the series with Raji cells (1.0 μM inactivator (FIG. 2)) were “more effective than BeG” and “equally effective”, respectively.

For the compound `Nc1nc(OCc2cc(Br)cs2)c2nc[nH]c2n1` [B.4280, O^6-(4-bromothenyl)guanine], the “recovery of ATase activity in tissues, in words” value in the series on ATase was “activity in brain, testis and bone marrow was near to control levels by 24 hours whereas lung and spleen activity had not completely recovered by 48 hours”.
